Laboratory results published in patent publication EP0454444A1, “Glutarimide derivatives and herbicides” (NISSAN CHEMICAL INDUSTRIES LTD., priority 1990, dated 1991).

How the values were obtained:
Assay in all cases: Herbicidal effect test by soil treatment
Assay type in all cases: in vivo
[1] = tested on: annual sedge (Cyperus microiria); details: three weeks after spraying
Text: (§1) In a plastic box of 15 cm length, 22 cm width and 6 cm depth, there was placed a sterilized dilvial soil, and seeds of barnyardgrass (Echinochloa crusgalli), large crabgrass (Digitaria adscendens), annual sedge (Cyperus microiria), black nightshade (Solanum nigrum L.), hairly galinosoga (Galinsoga ciliat), rorippa ssp. (Rorippa atrovirens), rice (Oryza sativa), corn (Zea mays), wheat (Triticum aestivum), soybean (Glysine max) and cotton (Gossypium herbaceum) were sown mixedly. After covering soil to about 1 cm over the seeds, herbicides were sprayed evenly on the soil surface to predetermined proportions of the active ingredient In spraying, the wettable powder, emulsifiable concentrate, dry flowable or flowable in the above formulation examples were diluted with water and sprayed over the entire surface by means of a small sprayer. Three weeks after spraying, the herbicidal effect on crop plants including rice, corn, wheat, soybean, cotton and various kinds of weeds were examined according to the judgement criteria shown below. Judgement criteria
(§2) The above growth control rates are determined by measuring the top fresh weights of the treated plants and those of the non-treated plants, and culculated from the following formula: [formula]

[2] = tested on: barnyardgrass (Echinochloa crusgalli); details: three weeks after spraying
Text: as §1, §2

[3] = tested on: black nightshade (Solanum nigrum L.); details: three weeks after spraying
Text: as §1, §2

[4] = tested on: corn (Zea mays); details: crop plant, three weeks after spraying
Text: as §1, §2

[5] = tested on: cotton (Gossypium herbaceum); details: crop plant, three weeks after spraying
Text: as §1, §2

[6] = tested on: hairly galinosoga (Galinsoga ciliat); details: three weeks after spraying
Text: as §1, §2

[7] = tested on: large crabgrass (Digitaria adscendens); details: three weeks after spraying
Text: as §1, §2

[8] = tested on: rice (Oryza sativa); details: crop plant, three weeks after spraying
Text: as §1, §2

[9] = tested on: rorippa ssp. (Rorippa atrovirens); details: three weeks after spraying
Text: as §1, §2

[10] = tested on: soybean (Glysine max); details: crop plant, three weeks after spraying
Text: as §1, §2

[11] = tested on: wheat (Triticum aestivum); details: crop plant, three weeks after spraying
Text: as §1, §2

CCOC(=O)Nc1cc(N2C(=O)CC(C(F)(F)F)CC2=O)c(F)cc1Cl [1-35]
herbicidal effect, K (Cyperus microiria) ([1]; application amount 1.6 g/a): 5 (Growth control,rates of more than 90% (almost completely withered))
herbicidal effect, N (Echinochloa crusgalli) ([2]; application amount 1.6 g/a): 4 (Growth control rates of 70 to 90%)
herbicidal effect, H (Solanum nigrum L.) ([3]; application amount 1.6 g/a): 5 (Growth control,rates of more than 90% (almost completely withered))
herbicidal effect, T (Zea mays) ([4]; application amount 1.6 g/a): 0 (Growth control rates of less than 5% (substantially no effect))
herbicidal effect, C (Gossypium herbaceum) ([5]; application amount 1.6 g/a): 0 (Growth control rates of less than 5% (substantially no effect))
herbicidal effect, D (Galinsoga ciliat) ([6]; application amount 1.6 g/a): 5 (Growth control,rates of more than 90% (almost completely withered))
herbicidal effect, M (Digitaria adscendens) ([7]; application amount 1.6 g/a): 5 (Growth control,rates of more than 90% (almost completely withered))
herbicidal effect, R (Oryza sativa) ([8]; application amount 1.6 g/a): 0 (Growth control rates of less than 5% (substantially no effect))
herbicidal effect, I (Rorippa indica) ([9]; application amount 1.6 g/a): 5 (Growth control,rates of more than 90% (almost completely withered))
herbicidal effect, S (Glysine max) ([10]; application amount 1.6 g/a): 0 (Growth control rates of less than 5% (substantially no effect))
herbicidal effect, W (Triticum vulgare) ([11]; application amount 1.6 g/a): 1 (Growth control rates of 5 to 20%)

C#CCN1C(=O)COc2cc(F)c(N3C(=O)CC(C(F)(F)F)CC3=O)cc21 [1-26]
herbicidal effect, K (Cyperus microiria) ([1]; application amount 0.4 g/a): 5 (Growth control,rates of more than 90% (almost completely withered))
herbicidal effect, K (Cyperus microiria) ([1]; application amount 0.8 g/a): 5 (Growth control,rates of more than 90% (almost completely withered))
herbicidal effect, K (Cyperus microiria) ([1]; application amount 1.6 g/a): 5 (Growth control,rates of more than 90% (almost completely withered))
herbicidal effect, N (Echinochloa crusgalli) ([2]; application amount 0.4 g/a): 5 (Growth control,rates of more than 90% (almost completely withered))
herbicidal effect, N (Echinochloa crusgalli) ([2]; application amount 0.8 g/a): 5 (Growth control,rates of more than 90% (almost completely withered))
herbicidal effect, N (Echinochloa crusgalli) ([2]; application amount 1.6 g/a): 5 (Growth control,rates of more than 90% (almost completely withered))
herbicidal effect, H (Solanum nigrum L.) ([3]; application amount 0.4 g/a): 5 (Growth control,rates of more than 90% (almost completely withered))
herbicidal effect, H (Solanum nigrum L.) ([3]; application amount 0.8 g/a): 5 (Growth control,rates of more than 90% (almost completely withered))
herbicidal effect, H (Solanum nigrum L.) ([3]; application amount 1.6 g/a): 5 (Growth control,rates of more than 90% (almost completely withered))
herbicidal effect, T (Zea mays) ([4]; application amount 0.4 g/a): 4 (Growth control rates of 70 to 90%)
herbicidal effect, T (Zea mays) ([4]; application amount 0.8 g/a): 5 (Growth control,rates of more than 90% (almost completely withered))
herbicidal effect, T (Zea mays) ([4]; application amount 1.6 g/a): 5 (Growth control,rates of more than 90% (almost completely withered))
herbicidal effect, C (Gossypium herbaceum) ([5]; application amount 0.4 g/a): 5 (Growth control,rates of more than 90% (almost completely withered))
herbicidal effect, C (Gossypium herbaceum) ([5]; application amount 0.8 g/a): 5 (Growth control,rates of more than 90% (almost completely withered))
herbicidal effect, C (Gossypium herbaceum) ([5]; application amount 1.6 g/a): 5 (Growth control,rates of more than 90% (almost completely withered))
herbicidal effect, D (Galinsoga ciliat) ([6]; application amount 0.4 g/a): 5 (Growth control,rates of more than 90% (almost completely withered))
herbicidal effect, D (Galinsoga ciliat) ([6]; application amount 0.8 g/a): 5 (Growth control,rates of more than 90% (almost completely withered))
herbicidal effect, D (Galinsoga ciliat) ([6]; application amount 1.6 g/a): 5 (Growth control,rates of more than 90% (almost completely withered))
herbicidal effect, M (Digitaria adscendens) ([7]; application amount 0.4 g/a): 5 (Growth control,rates of more than 90% (almost completely withered))
herbicidal effect, M (Digitaria adscendens) ([7]; application amount 0.8 g/a): 5 (Growth control,rates of more than 90% (almost completely withered))
herbicidal effect, M (Digitaria adscendens) ([7]; application amount 1.6 g/a): 5 (Growth control,rates of more than 90% (almost completely withered))
herbicidal effect, R (Oryza sativa) ([8]; application amount 0.4 g/a): 5 (Growth control,rates of more than 90% (almost completely withered))
herbicidal effect, R (Oryza sativa) ([8]; application amount 0.8 g/a): 5 (Growth control,rates of more than 90% (almost completely withered))
herbicidal effect, R (Oryza sativa) ([8]; application amount 1.6 g/a): 5 (Growth control,rates of more than 90% (almost completely withered))
herbicidal effect, I (Rorippa indica) ([9]; application amount 0.4 g/a): 5 (Growth control,rates of more than 90% (almost completely withered))
herbicidal effect, I (Rorippa indica) ([9]; application amount 0.8 g/a): 5 (Growth control,rates of more than 90% (almost completely withered))
herbicidal effect, I (Rorippa indica) ([9]; application amount 1.6 g/a): 5 (Growth control,rates of more than 90% (almost completely withered))
herbicidal effect, S (Glysine max) ([10]; application amount 0.4 g/a): 0 (Growth control rates of less than 5% (substantially no effect))
herbicidal effect, S (Glysine max) ([10]; application amount 0.8 g/a): 2 (Growth control rates of 20 to 40%)
herbicidal effect, S (Glysine max) ([10]; application amount 1.6 g/a): 4 (Growth control rates of 70 to 90%)
herbicidal effect, W (Triticum vulgare) ([11]; application amount 0.4 g/a): 4 (Growth control rates of 70 to 90%)
herbicidal effect, W (Triticum vulgare) ([11]; application amount 0.8 g/a): 5 (Growth control,rates of more than 90% (almost completely withered))
herbicidal effect, W (Triticum vulgare) ([11]; application amount 1.6 g/a): 5 (Growth control,rates of more than 90% (almost completely withered))

O=C1CC(C(F)(F)F)CC(=O)N1Cc1ccc(Cl)cc1 [1-31]
herbicidal effect, K (Cyperus microiria) ([1]; application amount 6.3 g/a): 5 (Growth control,rates of more than 90% (almost completely withered))
herbicidal effect, N (Echinochloa crusgalli) ([2]; application amount 6.3 g/a): 4 (Growth control rates of 70 to 90%)
herbicidal effect, H (Solanum nigrum L.) ([3]; application amount 6.3 g/a): 5 (Growth control,rates of more than 90% (almost completely withered))
herbicidal effect, T (Zea mays) ([4]; application amount 6.3 g/a): 0 (Growth control rates of less than 5% (substantially no effect))
herbicidal effect, C (Gossypium herbaceum) ([5]; application amount 6.3 g/a): 0 (Growth control rates of less than 5% (substantially no effect))
herbicidal effect, D (Galinsoga ciliat) ([6]; application amount 6.3 g/a): 5 (Growth control,rates of more than 90% (almost completely withered))
herbicidal effect, M (Digitaria adscendens) ([7]; application amount 6.3 g/a): 4 (Growth control rates of 70 to 90%)
herbicidal effect, R (Oryza sativa) ([8]; application amount 6.3 g/a): 0 (Growth control rates of less than 5% (substantially no effect))
herbicidal effect, I (Rorippa indica) ([9]; application amount 6.3 g/a): 5 (Growth control,rates of more than 90% (almost completely withered))
herbicidal effect, S (Glysine max) ([10]; application amount 6.3 g/a): 0 (Growth control rates of less than 5% (substantially no effect))
herbicidal effect, W (Triticum vulgare) ([11]; application amount 6.3 g/a): 0 (Growth control rates of less than 5% (substantially no effect))
